# Reference: PubChem BioAssay AID1259407 (Chemical Carcinogenesis Research Information System (CCRIS), 2018)
# Entries after “also recorded” stand apart in the source; their conditions may differ. Calls of active or inactive are those of the source. The rule behind the calls is not given here.
# System: CCRIS mutagenicity, Ames/micronucleus/aberration tests
# Assay: CCRIS mutagenicity studies
compound,measurement,setting,value
Nc1ccc(Oc2ccc(N)cc2)cc1,mutagenic call,"End Point: IN VITRO CHROMOSOMAL ABERRATIONS, Test System: CHL CELLS, Metabolic Activation: NONE",active; positive (structural changes); precipitation occurred at 1.3 and 5.0 mg/ml; also recorded: active; positive (structural changes); precipitation occurred at 1.7 and 5.0 mg/ml
same,mutagenic call,"End Point: IN VITRO CHROMOSOMAL ABERRATIONS, Test System: CHL CELLS, Metabolic Activation: RAT, LIVER, S-9, SODIUM PHENOBARBITAL AND 5,6-BENZOFLAVONE",active; positive (structural changes); precipitation occurred at 1.7 mg/ml
same,mutagenic call,"End Point: IN VITRO CHROMOSOMAL ABERRATIONS, Test System: CHO CELLS, Metabolic Activation: RAT, LIVER, S-9, AROCLOR 1254","active; positive; precipitation occurred at 1600 and 5000 ug/ml; also recorded: active; positive; precipitation occurred at 2000, 3000, 4000 and 5000 ug/ml"
same,mutagenic call,"Test System: AMES SALMONELLA TYPHIMURIUM, Strain/Indicator: TA97, Metabolic Activation: HAMSTER, LIVER, S-9, AROCLOR 1254 (10%), Method: PREINCUBATION",active; positive
same,mutagenic call,"Test System: AMES SALMONELLA TYPHIMURIUM, Strain/Indicator: TA97, Metabolic Activation: NONE, Method: PREINCUBATION",inactive; negative
same,mutagenic call,"Test System: AMES SALMONELLA TYPHIMURIUM, Strain/Indicator: TA97, Metabolic Activation: RAT, LIVER, S-9, AROCLOR 1254 (10%), Method: PREINCUBATION",active; positive
same,mutagenic call,"Test System: AMES SALMONELLA TYPHIMURIUM, Strain/Indicator: TA98, Metabolic Activation: HAMSTER, LIVER, S-9, AROCLOR 1254 (10%), Method: PREINCUBATION",active; positive
same,mutagenic call,"Test System: AMES SALMONELLA TYPHIMURIUM, Strain/Indicator: TA98, Metabolic Activation: NONE, Method: FLUCTUATION (MICROTITER)",inactive; negative
same,mutagenic call,"Test System: AMES SALMONELLA TYPHIMURIUM, Strain/Indicator: TA98, Metabolic Activation: NONE, Method: STANDARD PLATE",inactive; negative
same,mutagenic call,"Test System: AMES SALMONELLA TYPHIMURIUM, Strain/Indicator: TA98, Metabolic Activation: RAT LIVER S-9, PHENOBARBITAL AND BETA-NAPHTHOFLAVONE, Method: PREINCUBATION",active; positive
same,mutagenic call,"Test System: AMES SALMONELLA TYPHIMURIUM, Strain/Indicator: TA98, Metabolic Activation: RAT, LIVER, S-9, AROCLOR 1254 (10%), Method: PREINCUBATION",active; positive
same,mutagenic call,"Test System: AMES SALMONELLA TYPHIMURIUM, Strain/Indicator: TA98, Metabolic Activation: RAT, LIVER, S-9, PCB, Method: PREINCUBATION",active; positive
same,mutagenic call,"Test System: AMES SALMONELLA TYPHIMURIUM, Strain/Indicator: TA98, Metabolic Activation: RAT, LIVER, S-9, PCB, Method: STANDARD PLATE",active; positive
same,mutagenic call,"Test System: AMES SALMONELLA TYPHIMURIUM, Strain/Indicator: TA100, Metabolic Activation: HAMSTER, LIVER, S-9, AROCLOR 1254 (10%), Method: PREINCUBATION",active; positive
same,mutagenic call,"Test System: AMES SALMONELLA TYPHIMURIUM, Strain/Indicator: TA100, Metabolic Activation: NONE, Method: STANDARD PLATE",inactive; negative
same,mutagenic call,"Test System: AMES SALMONELLA TYPHIMURIUM, Strain/Indicator: TA100, Metabolic Activation: RAT LIVER S-9, PHENOBARBITAL AND BETA-NAPHTHOFLAVONE, Method: PREINCUBATION",active; positive
same,mutagenic call,"Test System: AMES SALMONELLA TYPHIMURIUM, Strain/Indicator: TA100, Metabolic Activation: RAT, LIVER, S-9, AROCLOR 1254 (10%), Method: PREINCUBATION",active; positive
same,mutagenic call,"Test System: AMES SALMONELLA TYPHIMURIUM, Strain/Indicator: TA100, Metabolic Activation: RAT, LIVER, S-9, PCB, Method: PREINCUBATION",active; positive
same,mutagenic call,"Test System: AMES SALMONELLA TYPHIMURIUM, Strain/Indicator: TA100, Metabolic Activation: RAT, LIVER, S-9, PCB, Method: STANDARD PLATE",active; positive
same,mutagenic call,"Test System: AMES SALMONELLA TYPHIMURIUM, Strain/Indicator: TA1535, Metabolic Activation: HAMSTER, LIVER, S-9, AROCLOR 1254 (10%), Method: PREINCUBATION",active; positive
same,mutagenic call,"Test System: AMES SALMONELLA TYPHIMURIUM, Strain/Indicator: TA1535, Metabolic Activation: NONE, Method: PREINCUBATION",inactive; negative
same,mutagenic call,"Test System: AMES SALMONELLA TYPHIMURIUM, Strain/Indicator: TA1535, Metabolic Activation: RAT LIVER S-9, PHENOBARBITAL AND BETA-NAPHTHOFLAVONE, Method: PREINCUBATION",inactive; negative
same,mutagenic call,"Test System: AMES SALMONELLA TYPHIMURIUM, Strain/Indicator: TA1535, Metabolic Activation: RAT, LIVER, S-9, AROCLOR 1254 (10%), Method: PREINCUBATION",inactive; negative
same,mutagenic call,"Test System: AMES SALMONELLA TYPHIMURIUM, Strain/Indicator: TA1537, Metabolic Activation: HAMSTER, LIVER, S-9, AROCLOR 1254 (10%), Method: PREINCUBATION",active; positive
same,mutagenic call,"Test System: AMES SALMONELLA TYPHIMURIUM, Strain/Indicator: TA1537, Metabolic Activation: NONE, Method: FLUCTUATION (MICROTITER)",inactive; negative
same,mutagenic call,"Test System: AMES SALMONELLA TYPHIMURIUM, Strain/Indicator: TA1537, Metabolic Activation: NONE, Method: PREINCUBATION",inactive; negative
same,mutagenic call,"Test System: AMES SALMONELLA TYPHIMURIUM, Strain/Indicator: TA1537, Metabolic Activation: RAT LIVER S-9, PHENOBARBITAL AND BETA-NAPHTHOFLAVONE, Method: PREINCUBATION",inactive; negative
same,mutagenic call,"Test System: AMES SALMONELLA TYPHIMURIUM, Strain/Indicator: TA1537, Metabolic Activation: RAT, LIVER, S-9, AROCLOR 1254 (10%), Method: PREINCUBATION",inactive; negative
same,mutagenic call,"Test System: AMES SALMONELLA TYPHIMURIUM, Strain/Indicator: TA7001, Metabolic Activation: NONE, Method: FLUCTUATION (MICROTITER)",inactive; negative
same,mutagenic call,"Test System: AMES SALMONELLA TYPHIMURIUM, Strain/Indicator: TA7002, Metabolic Activation: NONE, Method: FLUCTUATION (MICROTITER)",inactive; negative
same,mutagenic call,"Test System: AMES SALMONELLA TYPHIMURIUM, Strain/Indicator: TA7003, Metabolic Activation: NONE, Method: FLUCTUATION (MICROTITER)",inactive; negative
same,mutagenic call,"Test System: AMES SALMONELLA TYPHIMURIUM, Strain/Indicator: TA7004, Metabolic Activation: NONE, Method: FLUCTUATION (MICROTITER)",inactive; negative
same,mutagenic call,"Test System: AMES SALMONELLA TYPHIMURIUM, Strain/Indicator: TA7005, Metabolic Activation: NONE, Method: FLUCTUATION (MICROTITER)",active; positive
same,mutagenic call,"Test System: AMES SALMONELLA TYPHIMURIUM, Strain/Indicator: TA7006, Metabolic Activation: NONE, Method: FLUCTUATION (MICROTITER)",inactive; negative
same,mutagenic call,"Test System: E.COLI, Strain/Indicator: WP2UVRA, Metabolic Activation: NONE, Method: PREINCUBATION",inactive; negative
same,mutagenic call,"Test System: E.COLI, Strain/Indicator: WP2UVRA, Metabolic Activation: RAT LIVER S-9, PHENOBARBITAL AND BETA-NAPHTHOFLAVONE, Method: PREINCUBATION",inactive; negative
